A value given as a limit tells only on which side of the number the result lay.

The IC50 is the concentration that inhibits the measured activity by half.

The target in one assay is IDO1 enzyme (Homo sapiens, UniProt P14902). Description: Determination of biochemical activity of IDO1 enzyme (absorbance at 320 nm). The note with it: room temperature, 3 hours. The gist of the method:
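Enzyme and compound were reacted in sodium hydrogen phosphate buffer (pH 7-8) for 3 hours at room temperature. Absorbance at 320 nm gave inhibition rate, and IC50 was calculated from it.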

Assay [1] addresses T1, IDO1 enzyme in the Hela cell (Homo sapiens, UniProt P14902).
T1 construct: endogenous in cells; host or cells: HeLa cells stimulated with interferon γ (100 ng/ml)
Description: Cell activity: interferon γ-stimulated Hela cells, absorbance of supernatant at 480 nm. It is filed as cell-based. The note with it: interferon γ 100 ng/ml, 72 hours. In outline:
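HeLa cells treated with compound plus interferon γ (100 ng/ml final) and cultured 72 h at 37 °C. Supernatant treated with trichloroacetic acid 30 min at 50 °C, centrifuged, then mixed with 2% dimethylaminobenzaldehyde in acetic acid; absorbance read at 480 nm.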

T1 sequence (P14902 whole entry): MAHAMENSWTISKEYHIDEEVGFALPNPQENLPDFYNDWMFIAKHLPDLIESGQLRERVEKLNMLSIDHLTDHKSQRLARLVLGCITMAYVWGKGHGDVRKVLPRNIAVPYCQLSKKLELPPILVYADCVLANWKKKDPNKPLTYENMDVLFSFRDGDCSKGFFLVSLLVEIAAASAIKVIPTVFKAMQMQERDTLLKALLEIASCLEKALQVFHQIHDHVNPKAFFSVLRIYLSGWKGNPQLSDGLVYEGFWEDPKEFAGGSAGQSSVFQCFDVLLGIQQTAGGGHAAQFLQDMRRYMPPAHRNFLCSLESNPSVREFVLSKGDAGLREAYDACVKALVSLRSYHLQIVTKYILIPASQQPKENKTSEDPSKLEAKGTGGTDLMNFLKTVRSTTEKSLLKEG
Chain of IDO1 enzyme (P14902 whole entry): as above

Consider `COc1ccc(NC(=S)Nc2nonc2/C(=N/O)Nc2ccc(F)c(Br)c2)c(F)c1` [Embodiment 120], for which the IC50 (against IDO1 enzyme; in assay [1]) was > 1 µM in each case.

In the case of `O=C(Nc1ccoc1)Nc1cocc1/C(=N/O)Nc1ccc(F)c(Br)c1` [Embodiment 77], the IC50 (on IDO1 enzyme; in assay [1]) was > 1 µM in each case.

For `O=C(Nc1cocc1/C(=N/O)Nc1ccc(F)c(Br)c1)Nc1cccc2[nH]ccc12` [Embodiment 73, (Z)-1-(4-(N-(3-bromo-4-fluorophenyl)-N′-hydroxyaminoiminomethyl)-furan-3-substituted)-3-(4-aminoindole)urea], the IC50 (against IDO1 enzyme; in assay [1]) was 0.1 to 1 µM each time.

As to `O=C(Nc1ccsc1)Nc1cocc1/C(=N/O)Nc1ccc(F)c(Br)c1` [Embodiment 78], the IC50 (on IDO1 enzyme; in assay [1]) was > 1 µM throughout.

In the case of `O/N=C(\Nc1ccc(F)c(Br)c1)c1nonc1NC(=S)NC1CCC(O)CC1` (stereo not shown) [Embodiment 123, (Z)-1-(4-(N-(3-bromo-4-fluorophenyl)-N′-hydroxyaminoiminomethyl)-1,2,5-oxadiazole-3-substituted)-3-(4-hydroxycyclohexyl)thiourea], the IC50 (at IDO1 enzyme; in assay [1]) was < 0.001 µM throughout.

Regarding `O=C(Nc1cc[nH]c1)Nc1cocc1/C(=N/O)Nc1ccc(F)c(Br)c1` [Embodiment 76, (Z)-1-(4-(N-(3-bromo-4-fluorophenyl)-N′-hydroxyaminoiminomethyl)-furan-3-substituted)-3-(1H-pyrrole-3-substituted)urea], the IC50 (on IDO1 enzyme; in assay [1]) was > 1 µM each time.

On to `O=C(NCCO)Nc1nocc1/C(=N/O)Nc1ccc(F)c(Br)c1` [Embodiment 89, (Z)-1-(4-(N-(3-bromo-4-fluorophenyl)-N′-hydroxyaminoiminomethyl)-isoxazole-3-substituted)+3-(2-hydroxyethyl)urea], for which the IC50 (on IDO1 enzyme; in assay [1]) was < 0.001 µM in each case.

`CCc1cccc(NC(=O)Nc2nonc2/C(=N/O)Nc2ccc(F)c(Br)c2)c1` [Embodiment 2, (Z)-1-(4-(N-(3-bromo-4-fluorophenyl)-N′-hydroxyaminoiminomethyl)-1,2,5-oxadiazole-3-substituted)-3-(3-ethylphenyl)urea]: the IC50 (against IDO1 enzyme; in assay [1]) was 0.1 to 1 µM throughout.

Consider `O=C(Nc1nonc1/C(=N/O)Nc1ccc(F)cc1)NC1CCC(O)CC1` (stereo not shown) [Embodiment 55], for which the IC50 (against IDO1 enzyme; in assay [1]) was < 0.001 µM throughout.

Turning to `N=C(Nc1ccc(O)cc1)Nc1nonc1/C(=N/O)Nc1ccc(F)c(Br)c1` [Embodiment 141, (Z)-1-(4-(N-(3-bromo-4-fluorophenyl)-N′-hydroxyaminoiminomethyl)-1,2,5-oxadiazole-3-substituted)-3-(4-hydroxyphenyl)guanidine], the IC50 (at IDO1 enzyme; in assay [1]) was < 0.001 µM throughout.

As to `COc1cccc(NC(=O)Nc2cocc2/C(=N/O)Nc2ccc(F)c(Br)c2)c1` [Embodiment 59, (Z)-1-(4-(N-(3-bromo-4-fluorophenyl)-N′-hydroxyaminoiminomethyl)-furan-3-substituted)-3-(3-methoxyphenyl)urea], the IC50 (against IDO1 enzyme; in assay [1]) was > 1 µM each time.

`COc1ccc(NC(=O)Nc2nonc2/C(=N/O)Nc2ccc(F)c(Br)c2)cc1` [Embodiment 1, (Z)-1-(4-(N-(3-bromo-4-fluorophenyl)-N′-hydroxyaminoiminomethyl)-1,2,5-oxadiazole-3-substituted)-3-(4-methoxyphenyl)urea]: the IC50 (at IDO1 enzyme; in assay [1]) was 0.1 to 1 µM in each case.

Take `O=C(Nc1conc1/C(=N/O)Nc1ccc(F)c(Br)c1)NC1CCNCC1` [Embodiment 106]: the IC50 (on IDO1 enzyme; in assay [1]) was < 0.001 µM each time.

As to `O/N=C(\Nc1ccc(F)c(Br)c1)c1conc1NC(=S)Nc1ccccc1` [Embodiment 134, (Z)-1-(4-(N-(3-bromo-4-fluorophenyl)-N′-hydroxyaminoiminomethyl)-isoxazole-3-substituted)-3-(phenyl)thiourea], the IC50 (against IDO1 enzyme; in assay [1]) was 0.1 to 1 µM throughout.

With `NCCNC(=O)Nc1conc1/C(=N/O)Nc1ccc(F)c(Br)c1` [Embodiment 111], the IC50 (against IDO1 enzyme; in assay [1]) was < 0.001 µM each time.

`N=C(NCCCO)Nc1nonc1/C(=N/O)Nc1ccc(F)c(Br)c1` [Embodiment 151, (Z)-1-(4-(N-(3-bromo-4-fluorophenyl)-N′-hydroxyaminoiminomethyl)-1,2,5-oxadiazole-3-substituted)-3-(3-hydroxypropyl)guanidine]: the IC50 (on IDO1 enzyme; in assay [1]) was < 0.001 µM each time.

As to `CS(=O)(=O)NCCNC(=O)Nc1cocc1/C(=N/O)Nc1ccc(F)c(Br)c1` [Embodiment 72, (Z)-1-(4-(N-(3-bromo-4-fluorophenyl)-N′-hydroxyaminoiminomethyl)-furan-3-substituted)-3-(2-methamidoethyl)urea], the IC50 (at IDO1 enzyme; in assay [1]) was 0.1 to 1 µM throughout.

Regarding `COc1ccc(NC(=N)Nc2nonc2/C(=N/O)Nc2ccc(F)c(Br)c2)cc1` [Embodiment 139, (Z)-1-(4-(N-(3-bromo-4-fluorophenyl)-N′-hydroxyaminoiminomethyl)-1,2,5-oxadiazole-3-substituted)-3-(4-methoxyphenyl)guanidine], the IC50 (on IDO1 enzyme; in assay [1]) was < 0.001 µM in each case.

Turning to `O=C(Nc1cccnc1)Nc1nocc1/C(=N/O)Nc1ccc(F)c(Br)c1` [Embodiment 96, (Z)-1-(4-(N-(3-bromo-4-fluorophenyl)-N′-hydroxyaminoiminomethyl)-isoxazole-3-substituted)-3-(3-aminopyridine)urea], the concentration for half-maximal inhibition (IC50) (at IDO1 enzyme; in assay [1]) was 0.1 to 1 µM each time.

With `O=C(Nc1nonc1/C(=N/O)Nc1ccc(F)c(Br)c1)Nc1cccc2[nH]ccc12` [Embodiment 34, (Z)-1-(4-(N-(3-bromo-4-fluorophenyl)-N′-hydroxyaminoiminomethyl)-1,2,5-oxadiazole-3-substituted)-3-(1H-indole-4-substituted)urea], the IC50 (at IDO1 enzyme; in assay [1]) was 0.1 to 1 µM throughout.

Turning to `N=C(Nc1ccc(C(F)(F)F)cc1)Nc1nonc1/C(=N/O)Nc1ccc(F)c(Br)c1` [Embodiment 143, (Z)-1-(4-(N-(3-bromo-4-fluorophenyl)-N′-hydroxyaminoiminomethyl)-1,2,5-oxadiazole-3-substituted)-3-(4-trifluorophenyl)guanidine], the IC50 (on IDO1 enzyme; in assay [1]) was > 1 µM in each case.

As to `COc1ccc(NC(=S)Nc2cocc2/C(=N/O)Nc2ccc(F)c(Br)c2)cc1` [Embodiment 136, (Z)-1-(4-(N-(3-bromo-4-fluorophenyl)-N′-hydroxyaminoiminomethyl)-furan-3-substituted)-3-(4-methoxyphenyl)thiourea], the IC50 (at IDO1 enzyme; in assay [1]) was > 1 µM each time.

Consider `N=C(Nc1conc1/C(=N/O)Nc1ccc(F)c(Cl)c1)NC1CCCCC1` [Embodiment 156, (Z)-1-(4-(N-(3-chloro-4-fluorophenyl)-N′-hydroxyaminoiminomethyl)-isoxazole-3-substituted)-4-cyclohexylguanidine], for which the IC50 (at IDO1 enzyme; in assay [1]) was 0.1 to 1 µM each time.

As to `NC1CCC(NC(=O)Nc2conc2/C(=N/O)Nc2ccc(F)c(Br)c2)CC1` (stereo not shown) [Embodiment 108], the IC50 (against IDO1 enzyme; in assay [1]) was 0.1 to 1 µM throughout.

For `O=C(Nc1conc1/C(=N/O)Nc1ccc(F)c(Br)c1)NC1CCCC1` [Embodiment 104, (Z)-1-(4-(N-(3-bromo-4-fluorophenyl)-N′-hydroxyaminoiminomethyl)-isoxazole-3-substituted)-4-(cyclopentyl)urea], the IC50 (against IDO1 enzyme; in assay [1]) was > 1 µM throughout.

Take `CS(=O)(=O)NCCNC(=O)Nc1nocc1/C(=N/O)Nc1ccc(F)c(Br)c1` [Embodiment 93, (Z)-1-(4-(N-(3-bromo-4-fluorophenyl)-N′-hydroxyaminoiminomethyl)-isoxazole-3-substituted)-3-(2-methamidoethyl)urea]: the IC50 (on IDO1 enzyme; in assay [1]) was < 0.001 µM in each case.

As to `O=C(Nc1ccccc1)Nc1cocc1/C(=N/O)Nc1ccc(F)c(Br)c1` [Embodiment 60, (Z)-1-(4-(N-(3-bromo-4-fluorophenyl)-N′-hydroxyaminoiminomethyl)-furan-3-substituted)-3-phenylurea], the IC50 (against IDO1 enzyme; in assay [1]) was > 1 µM throughout.

Take `N=C(Nc1ccccc1)Nc1nocc1/C(=N/O)Nc1ccc(F)c(Br)c1` [Embodiment 158, (Z)-1-(4-(N-(3-bromo-4-fluorophenyl)-N′-hydroxyaminoiminomethyl)-isoxazole-3-substituted)-3-phenylguanidine]: the IC50 (on IDO1 enzyme; in assay [1]) was 0.1 to 1 µM each time.

On to `COc1ccc(NC(=O)Nc2conc2/C(=N/O)Nc2ccc(F)c(Cl)c2)cc1` [Embodiment 112, (Z)-1-(4-(N-(3-chloro-4-fluorophenyl)-N′-hydroxyaminoiminomethyl)-isoxazole-3-substituted)-4-(4-methoxyphenyl)urea], for which the IC50 (on IDO1 enzyme; in assay [1]) was 0.1 to 1 µM throughout.

For the compound `O=C(Nc1ccccc1)Nc1nonc1/C(=N/O)Nc1ccc(F)cc1` [Embodiment 51, (Z)-1-(4-(N-(4-fluorophenyl)-N′-hydroxyaminoiminomethyl)-1,2,5-oxadiazole-3-substituted)-3-phenylurea], the IC50 (against IDO1 enzyme; in assay [1]) was 0.1 to 1 µM each time.

Turning to `O=C(Nc1ccccc1)Nc1nonc1/C(=N/O)Nc1ccc(F)c(Br)c1` [Embodiment 19, (Z)-1-(4-(N-(4-bromo-3-fluorophenyl)-N′-hydroxyaminoiminomethyl)-1,2,5-oxadiazole-3-substituted)-3-phenylurea], the IC50 (on IDO1 enzyme; in assay [1]) was 0.1 to 1 µM in each case.

As for `O=C(Nc1ccncc1)Nc1nonc1/C(=N/O)Nc1ccc(F)c(Br)c1` [Embodiment 35], the IC50 (on IDO1 enzyme; in assay [1]) was 0.1 to 1 µM each time.

The values above are taken from patent US11014895B2, “Heterocyclic urea compound, and drug composition and application thereof” (CHINA PHARMACEUTICAL UNIVERSITY, priority 2017, dated 2021).
